Data published in the NIST ThermoML archive (doi:10.1021/je030168a).

Key:
[1] = Liquid
[2] = excess molar enthalpy (molar enthalpy of mixing); xn = mol fraction of the nth substance listed; details: 298.15 K, 101.3 kPa, Liquid, Flow calorimetry

CCCCBr [1-bromobutane]
[1]
Details	vapor or sublimation pressure [kPa]
278.15 K	1.86
283.15 K	2.48
288.15 K	3.265
293.15 K	4.261
298.15 K	5.506
303.15 K	7.039
308.15 K	8.899
313.15 K	11.15
318.15 K	13.87
323.15 K	17.09

CCCCBr [1-bromobutane] + CCCCCCCCO
[2]
Details	excess molar enthalpy [kcal/mol]
x2 = 0.025	0.087
x2 = 0.0571	0.144
x2 = 0.1224	0.201
x2 = 0.1949	0.233
x2 = 0.2361	0.244
x2 = 0.276	0.25
x2 = 0.3205	0.253
x2 = 0.367	0.252
x2 = 0.4661	0.24
x2 = 0.5784	0.212
x2 = 0.7064	0.165
x2 = 0.8484	0.0956
x2 = 0.9311	0.0488

CCCCCCCCCCO [decan-1-ol]
[1], Closed cell (Static) method
Details	vapor or sublimation pressure [kPa]
308.15 K	0.001
313.15 K	0.004
318.15 K	0.007
323.15 K	0.011

CCCCCCCCO [octan-1-ol]
[1]
Details	vapor or sublimation pressure [kPa]
288.15 K	0.001
293.15 K	0.003
298.15 K	0.007
303.15 K	0.011
308.15 K	0.019
313.15 K	0.031
318.15 K	0.051
323.15 K	0.08
